# Patent US12421317B2, “Polynucleotides encoding anti-glucagon-like peptide 1 receptor (GLP1R) antagonist antibodies” (Regeneron Pharmaceuticals, Inc., priority 2020, dated 2025)
# Marks after values point to notes of the source that are not given here.
# Test system: GLP1R humanized mice
# Experiment: GLP1-induced hypoglycemia (Exendin-4 challenge) in GLP1R humanized mice, glucose AUC (Example 6)
# Assay type: in vivo
# Conditions: for Normalized glucose AUC during Exendin-4 challenge: Exendin-4 at 0-min, test article 10 mg/kg s.c., mean
# Protocol: Thirty-nine, 2.5-month-old male GLP1R humanized mice were randomly divided into one group of sixteen mice, two groups of eight mice, and one group of seven mice. On Day 0, the group of sixteen animals (Groups 1 and 2) were administered subcutaneously (s.c.) with a hIgG4 isotype control antibody (referred to as isotype control, dose of 10 mg/kg). […] The group of seven animals (Group 5) was administered s.c. (dose of 10 mg/kg) with mAb36986. […] […] At the same time point, animals in Groups 3, 4, and 5 were administered i.p. with Exendin-4 (dose of 0.01 mg/kg). For all animals, blood glucose levels were measured with a handheld glucometer immediately before and 15, 30, 60, and 120 minutes after saline or Exendin-4 administration. All animals remained in their assigned groups until the study completion on Day 80. With animals in Groups 1, 2, 4, and 5, the Exendin-4 challenge was repeated on Days 3, 7, 15, 21, 29, 65, and 80.
# The AUC value of each animal at each challenge was normalized to the mean AUC value of Group 1. Statistical analyses were performed by one-way ANOVA followed by Bonferroni post-hoc tests, comparing Groups 1, 3, 4, or 5 to Group 2, for each challenge.
substance,measurement,setting,value
"Exendin-3 (9-39) amide [Exendin-9, reference compound]",correction of Exendin-4 induced hypoglycemia,10 mg/kg s.c.,"correction of Exendin-4 induced hypoglycemia when Exendin-4 challenge was performed 30 minutes post Exendin-9 administration, but not when the challenge was performed 4.5 or 24 hours post Exendin-9 administration"
same,Normalized glucose AUC during Exendin-4 challenge,0.5 h post test article,101.3**** % of Group 1
same,Normalized glucose AUC during Exendin-4 challenge,4.5 h post test article,70.1 % of Group 1
same,Normalized glucose AUC during Exendin-4 challenge,24 h post test article,74.1 % of Group 1
